The values that follow come from patent publication US20240076272A1, “Activators of Heme Regulated Inhibitor Kinase (HRI)” (The Brigham and Women`s Hospital, Inc., priority 2019, published 2024).

What is called melting point is the temperature, or range, at which the solid turns liquid.

Read-outs that look alike come from different tables or passages of the source.

For series [1], the system named is eIF2α phosphorylation (ATF-4 5′UTR luciferase reporter). Description: surrogate eIF2α phosphorylation dual-luciferase reporter (DLR) assay. It counts as cell-based. The conditions noted are these: F/R luciferase ratio normalized to DMSO wells (F/R=1); for fold induction at 1.25 µM: read-out: Fold stimulation of ATF-4 Surrogate eIF2α @ 1.25 μM; for fold induction at 5 µM: read-out: Fold stimulation of ATF-4 Surrogate eIF2α @ 5 μM. From the text: The dual luciferase expression vector and other plasmids used in the Examples provided herein have been previously reported (see e.g., Ziegeler et al, J. Biol. Chem. 285 (2010) 15408-15419). The dual luciferase surrogate eIF2α phosphorylation assay, has also been previously reported (see e.g., Chen et al, Nat. Chem. Biol. 7 (2011) 610-616). Briefly, a dual Renilla and Firefly luciferase mammalian reporter vector that transcribes both mRNAs from the same bi-directional enhancer/promoter complex was utilized for generation of surrogate eIF2α phosphorylation assay (see e.g., Ziegeler et al, J. Biol. Chem. 285 (2010) 15408-15419). Both mRNAs contained the same 90 nucleotide plasmid derived 5′UTR. In addition, 5′UTR of the Firefly luciferase open reading frame was fused in-frame to the 267 nucleotide ATF-4 5′UTR (see e.g., Chen et al, Nat. Chem. Biol. 7 (2011) 610-616).
Cells expressing firefly and renilla luciferases were assayed with a dual glow luciferase assay kit, per manufacturer's instruction (Promega Inc., Madison, WI). The data calculations were carried out as the ratio of firefly to renilla luciferase signal (see e.g., Ziegeler et al, J. Biol. Chem. 285 (2010) 15408-15419). Dose-response curves were obtained, and triplicate data points were fitted to the logistical sigmoidal model using nonlinear least-squares regression performed in GraphPad Prism 6.
All newly synthesized N,N′-disubstituted ureas were initially evaluated by testing in the surrogate eIF2α phosphorylation dual-luciferase reporter (DLR) assay (see e.g., Chen et al, Nat. Chem. Biol. 7 (2011) 610-616; and Ziegeler et al, J. Biol. Chem. 285 (2010) 15408-15419). Briefly, this assay takes advantage of the fact that activated HRI phosphorylates eIF2α which inhibits eIF2 guanine nucleotide exchange factor eIF2B, responsible for exchanging the GDP in the eIF2·GDP complex for GTP. The reduction in the recycling of eIF2·GDP into eIF2·GTP interferes with the formation of eIF2·GTP·Met-tRNAi ternary complex. […] These include mRNA coding for activating transcription factor 4 (ATF-4) (see e.g., Aktas et al, Oncotarget, 4 (2013) 1606-1617; Aktas et al, Oncotarget, 6 (2015) 6902-6914; and Aktas et al, Proc. Natl. Acad. Sci. U.S.A. 95 (1998) 8280-8285).
In the present assay, firefly (F) luciferase mRNA was fused to the 5′UTR of ATF-4 mRNA that had multiple uORFs, while renilla (R) luciferase mRNA was fused to a 5′UTR lacking any uORFs. Agents that reduce the amount of the eIF2·GTP·Met-tRNAi ternary complex, such as N,N′-disubstituted ureas that activate HRI, increase F luciferase expression while reducing the R luciferase expression, resulting in an increased F/R luciferase ratio. The ureas of the present application were tested at 10 μM, 5 μM, 2.5 μM, and 1.25 μM concentrations in 96-well assay plates (see e.g., Chen et al, Nat. Chem. Biol. 7 (2011) 610-616; and Bai et al, ChemBioChem, 14 (2013) 1255-1262). The activity scores as the F/R ratios were calculated for every compound-treated well and normalized to F/R ratio of vehicle-treated (DMSO) wells in the same plate, arbitrarily set at 1 (F/R=1). Data obtained in the surrogate dual-luciferase eIF2α phosphorylation (DLR) assay for the series of 1-phenyl-3/4-(4-trifluorometyl) phenoxy-cycloalkyl)ureas (4-CF3-ΦcAlkΦUs) and 1-phenyl-3-(5-(4-(trifluoromethyl) phenoxy)pyrimidin-2-yl)ureas (4-CF3-ΦOPyΦUs) described herein are shown in Tables 1-2.

Series [2] has as its system human melanoma CRL-2813 cells. Briefly: sulforhodamine B (SRB) cell proliferation assay. It counts as cell-based. The note with it: 5 days, read-out: IC50 (concentration that inhibits growth of human melanoma CRL-2813 cells by 50%). The procedure:
Cells were seeded in 96-well plates and maintained for 5 days in the presence of 0.5 μM to 20 μM of individual compound, and cell proliferation was measured by the sulforhodamine B (SRB) assay according to previous reports (see e.g., Palakurthi et al, Cancer Res. 60 (2000) 2919-2925): briefly, at the end of a 5-day treatment, cells were fixed in 10% cold trichloroacetic acid. Cell number was estimated by measuring the remaining bound dye of sulforhodamine B after washing. The percentage of growth was calculated by using the equation: 100×[(T-T0)/(C-T0)], where T and C represent the absorbance in treated and control cultures at Day 5, and T0 at time zero, respectively. If T was less than T0, cell death had occurred and was calculated from 100×[(T-T0)/T0].
All 4-CF3-ΦOcAlkΦUs were tested in the sulforhodamine B (SRB) cell proliferation assay to establish the concentrations that inhibit human melanoma CRL-2813 cells growth by 50% (IC50) (see Table 1). This activity reflects a combined effect of membrane permeability and overall anti-proliferative effects that include on target and off-target effects.

The next series concerns CHOP. Briefly: Western blot, CHOP expression in CRL-2813 cells. It counts as cell-based, human. The note with it: 5 μM, 8 hours, Western blot (FIG. 2B). The protocol:
(§1) FIGS. 2A-2B show HRI activators of the present application induce eIF2α phosphorylation and modify its downstream effectors. In FIG. 2A, CRL-2813 cells were treated with 5 μM of each compound for 2 hours, cell lysates were probed with phosphorylated (P-eIF2α) and total eIF2α (T-eIF2α) and β-actin specific antibodies. In FIG. 2B, CRL-2813 cells were treated with 5 μM HRI activators for 8 hours and lysates were immunoblotted with antibodies against CHOP, p27^KiPl, cyclin D1 and β-actin.
(§2) Cells cultured under recommended media conditions were plated and maintained in serum-containing media without antibiotics in 14-cm plates (Nunc) until reaching 70% confluence. Cells were then treated with compounds for 6 h, washed with cold PBS once, and lysed with M-PER Mammalian Protein Extraction Reagent (Pierce) for 30 min on ice. The cell lysates were centrifuged at 12,000 RPM for 15 min and the supernatants were transferred to fresh tubes and the concentrations were determined by BCA (Pierce). Equal amount of proteins were mixed with Laemmli Sample Buffer, heated at 100° C. for 5 min, separated by SDS-PAGE, and probed with anti-phosphoserine-51-eIF2α (Phos-eIF2α), anti-total eIF2α-specific antibodies (Total-eIF2α) (Biosource International, Hopkinton, MA), anti-CHOP, anti-cyclin D1 or anti-actin (Santa Cruz Biotechnology, CA) using procedures substantially similar to previous reports (see e.g., Aktas et al, Mol. Cell. Biol. 17 (1997) 3850-3857).
(§3) Endogenous eIF2α is the best-known substrate of HRI and the upstream regulator of the eIF2·GTP·Met-tRNAi ternary complex abundance, while CHOP expression is a downstream effector of eIF2α phosphorylation. For assessing eIF2α phosphorylation, blotted cell lysates were treated for two hours with vehicle or selected compounds using antibodies specific for the total-eIF2α and the phosphorylated-eIF2α (T-eIF2α and [PhoS^51]-eIF2α), respectively (see e.g., Aktas et al, J. Nutr. 134 (2004) 2487S-2491S) (see FIG. 2A).
Background: A western blot detects proteins with antibodies after separation by electrophoresis.

Another series concerns cyclin D1. Description: Western blot, cyclin D1 expression in CRL-2813 cells. It is filed as cell-based, human. The conditions noted are these: 5 μM, 8 hours, Western blot (FIG. 2B). The procedure: as §1, §2, §3

The molecule `Cc1ccc(F)cc1NC(=O)N[C@H]1CC[C@H](Oc2ccc(C(F)(F)F)cc2)C1` [Compound 7-V, 1-(5-Fluoro-2-methylphenyl)-3-((1S,3S)-3-(4-(trifluoromethyl)phenoxy)cyclopentyl)urea] came in with a melting point of 209.8 to 211.4 °C. In series [1] (1.25 μM), the fold induction at 1.25 µM is 1.4 ± 0.1. Moreover, the fold induction at 5 µM in series [1] (5 μM) stood at 1.3 ± 0.4. Besides, in series [2] (Homo sapiens, CRL2813, 120 h), the IC50 worked out at 8 ± 2.5 µM.

As to `Cc1ccc(F)cc1NC(=O)N[C@H]1CC[C@H](Oc2ccc(C(F)(F)F)cc2)CC1` [Compound 7-VI, 1-(5-Fluoro-2-methylphenyl)-3-(trans-4-(4-(trifluoromethyl)phenoxy)cyclohexyl)urea], the melting point lay in the range of 238.2 to 239.8 °C. The “expression of CHOP relative to DMSO” value with CHOP is given as “increased the expression of CHOP”. Also, the fold induction at 1.25 µM in series [1] (1.25 μM) was found to be 1.8 ± 0.8. Also, the fold induction at 5 µM in series [1] (5 μM) came to 1.5 ± 0.4. Moreover, the IC50 in series [2] (Homo sapiens, CRL2813, 120 h) amounted to 5.3 ± 1.8 µM. Further, in the series on cyclin D1, the “expression of cyclin D1 relative to DMSO” value was “decreased the expression of cyclin D1”.

On to `N#Cc1ccc(NC(=O)N[C@H]2CC[C@H](Oc3ccc(C(F)(F)F)cc3)CC2)c(F)c1` [Compound 8-VI, 1-(4-Cyano-2-fluorophenyl)-3-(trans-4-(4-(trifluoromethyl)phenoxy)cyclohexyl)urea], for which the melting point is 221.6 to 223.6 °C. Further, the fold induction at 1.25 µM in series [1] (1.25 μM) is 2.4 ± 0.4. In series [1] (5 μM), the fold induction at 5 µM is 6.2 ± 1.3. Also, the IC50 in series [2] (Homo sapiens, CRL2813, 120 h) was determined as 1.4 ± 0.3 µM.

As for `N#Cc1cc(F)cc(NC(=O)N[C@H]2CC[C@H](Oc3ccc(C(F)(F)F)cc3)CC2)c1` [Compound 9-VI, 1-(3-Cyano-5-fluorophenyl)-3-(trans-4-(4-(trifluoromethyl)phenoxy)cyclohexyl)urea], the melting point is 219.8 to 222 °C. Besides, the “Fold stimulation of ATF-4 Surrogate eIF2α @ 1.25 μM” value in series [1] (1.25 μM) is 3.7 ± 0.8 fold. Further, the “Fold stimulation of ATF-4 Surrogate eIF2α @ 5 μM” value in series [1] (5 μM) came out at 6.1 ± 1.1 fold. The IC50 in series [2] was found to be 1.4 ± 0.3 µM.

As to `O=C(Nc1ccc(F)c(F)c1)N[C@H]1C[C@H](Oc2ccc(C(F)(F)F)cc2)C1` [Compound 10-IV, 1-(3,4-difluorophenyl)-3-(trans-3-(4-(trifluoromethyl)phenoxy)cyclobutyl)urea], the melting point was in the range of 179.9 to 182 °C. Further, the fold induction at 1.25 µM in series [1] (1.25 μM) is 2.2 ± 0.5. For the same molecule, the fold induction at 5 µM in series [1] (5 μM) came to 4.5 ± 0.4. In series [2] (Homo sapiens, CRL2813, 120 h), the IC50 turned out to be 5.5 ± 0.7 µM.

For the molecule `O=C(Nc1ccc(F)c(F)c1)N[C@H]1CC[C@H](Oc2ccc(C(F)(F)F)cc2)C1` [Compound 10-V, 1-(3,4-Difluorophenyl)-3-((1S,3S)-3-(4-(trifluoromethyl)phenoxy)cyclopentyl)urea], the melting point lay within 175.4 to 177.5 °C. Also, in series [1] (1.25 μM), the fold induction at 1.25 µM was 0.9 ± 0.2. Besides, in series [1] (5 μM), the fold induction at 5 µM amounted to 3.5 ± 0.7. The IC50 in series [2] (Homo sapiens, CRL2813, 120 h) is 5.2 ± 1.5 µM.

Take `O=C(Nc1ccc(F)c(F)c1)N[C@H]1CC[C@H](Oc2ccc(C(F)(F)F)cc2)CC1` [Compound 10-VI, 1-(3,4-Difluorophenyl)-3-(trans-4-(4-(trifluoromethyl)phenoxy)cyclohexyl)urea]: the melting point is 228.2 to 229.8 °C. In addition, the fold induction at 1.25 µM in series [1] (1.25 μM) is 2.9 ± 0.7. Besides, the fold induction at 5 µM in series [1] (5 μM) is 5.6 ± 1.2. Besides, the IC50 in series [2] (Homo sapiens, CRL2813, 120 h) amounted to 1.3 ± 0.3 µM.

As to `O=C(Nc1cccc(F)c1F)N[C@H]1C[C@H](Oc2ccc(C(F)(F)F)cc2)C1` [Compound 11-IV, 1-(2,3-Difluorophenyl)-3-(trans-3-(4-(trifluoromethyl)phenoxy)cyclobutyl)urea], the melting point lay in the range of 205.9 to 208 °C. In addition, the fold induction at 1.25 µM in series [1] (1.25 μM) worked out at 0.8 ± 0.1. Moreover, the fold induction at 5 µM in series [1] (5 μM) stood at 6.2 ± 2.7. The IC50 in series [2] (Homo sapiens, CRL2813, 120 h) came out at 2.3 ± 0.9 µM.

For `O=C(Nc1cccc(F)c1F)N[C@H]1CC[C@H](Oc2ccc(C(F)(F)F)cc2)CC1` [Compound 11-VI, 1-(2,3-Difluorophenyl)-3-(trans-4-(4-(trifluoromethyl)phenoxy)cyclohexyl)urea], the melting point lay within 227.3 to 229.9 °C. Besides, the “expression of CHOP relative to DMSO” value in the series on CHOP is recorded as “increased the expression of CHOP”. Further, the fold induction at 1.25 µM in series [1] (1.25 μM) amounted to 4.7 ± 1. The fold induction at 5 µM in series [1] (5 μM) is 9.9 ± 1.3. Further, the IC50 in series [2] (Homo sapiens, CRL2813, 120 h) turned out to be 1.6 ± 2 µM. In addition, the “expression of cyclin D1 relative to DMSO” value with cyclin D1 is given as “decreased the expression of cyclin D1”.
